Data from patent US20240180914A1, “ORAL GEL COMPOSITION AND USE THEREOF” (DR. KURT WOLFF GMBH & CO. KG, priority 2021, published 2024).

What was measured:
[1] = tested on: human epidermal HaCaT keratinocytes; assay: fluorometric CyQUANT cell proliferation study (DNA content); assay type: cell-based; conditions: 0.00005, 0.0005, 0.005% caffeine; 24, 48 or 72 hours; best effects after 72 hours
Experimental: To investigate the effect of caffeine on cell proliferation of human epidermal HaCaT keratinocytes, human HaCaT keratinocytes were subjected to a CyQUANT viability assay, wherein the following series of experiments were performed: • 1. P22 Experiment 1 (biological assay 1) • 2. P24 Experiment 2 (biological assay 2).
The trial durations were 24, 48 or 72 hours.
The study was carried out by fluorometric CyQUANT study, wherein the DNA content was measured, reflecting cell proliferation.

[2] = tested on: VEGF; assay: Q-PCR, VEGF mRNA expression in HaCaT cell lysates; assay type: cell-based, human; conditions: all caffeine concentrations; 24 hours; Experiments 1 and 2
Experimental: (§1) For Q-PCR: Determination of VEGF, HGF and EGF mRNA expression in cell lysates • 2. For ELISA: Determination of VEGF, HGF and EGF protein synthesis/secretion into the culture medium
(§2) The initial cell count was • 1. for Q-PCR: 140,000 cells/well in 1500 μl culture medium • 2. for ELISA: 140,000 cells/well in 1.500 μl culture medium.
(§3) The trial duration for • 1. Q-PCR was 24 hours (single treatment at time 0 h) • 2. ELISA was 48 hours (double treatment at time 0 h and 24 h without changing the medium).
(§4) The study was carried out • 1. for Q-PCR by determining VEGF mRNA expression in cell lysates • 2. for ELISA by determining VEGF protein synthesis/secretion in the culture medium.

[3] = tested on: VEGF; assay: ELISA, VEGF protein synthesis/secretion into the culture medium of HaCaT; assay type: cell-based, human; conditions: 48 hours
Experimental: as §1, §2, §3, §4

[4] = tested on: GM-CSF; assay: Q-PCR, experiments regarding GM-CSF in HaCaT; assay type: cell-based, human; conditions: all tested caffeine concentrations; 24 h; Experiments 1 and 2
Experimental: as §1, §2, §3

[5] = tested on: GM-CSF; assay: ELISA, experiments regarding GM-CSF in HaCaT; assay type: cell-based, human; conditions: 48 h
Experimental: as §1, §2, §3

[6] = tested on: TGFβ1; assay: Q-PCR, TGFβ1 mRNA expression in HaCaT; assay type: cell-based, human; conditions: all tested caffeine concentrations; 24 h; Experiments 1 and 2
[7] = tested on: TGFβ2; assay: Q-PCR, TGFβ2 mRNA expression in HaCaT; assay type: cell-based, human
[8] = tested on: TGFβ1; assay: ELISA, TGFβ1-specific protein in HaCaT; assay type: cell-based, human; conditions: 48 h; both experiments
[9] = tested on: HGF; assay: Q-PCR, HGF mRNA expression in HaCaT cell lysates; assay type: cell-based, human; conditions: both experiments
Experimental: as §1, §2, §3

[10] = tested on: HGF; assay: ELISA, HGF protein synthesis/secretion in HaCaT; assay type: cell-based, human; conditions: both experiments
Experimental: as §1, §2, §3

[11] = tested on: TNFα; assay: Q-PCR, TNFα-specific mRNA in HaCaT; assay type: cell-based, human; conditions: both experiments
[12] = tested on: TNFα; assay: ELISA, TNFα-specific protein in HaCaT; assay type: cell-based, human; conditions: both experiments
[13] = tested on: human epidermal HaCaT keratinocytes; assay: colourimetric MTT viability study
Experimental: To investigate the effect of caffeine on the biological functions of human epidermal HaCaT keratinocytes, cell experiments were performed on human epidermal HaCaT keratinocytes, wherein the following studies were carried out: • 1. P13-A biological assay 1 with two independent studies • 2. P13-B biological assay 2 with two independent studies.
The initial cell count was 5000 cells/well in 100 μl culture medium.
The culture medium was HaCaT medium (DMEM with the addition of 10% FBS, 1% penicillin-streptomycin, 0.5% fungizone).
The treatment groups were as follows: • 1. Control group (CTRL) • 2. 0.00005% caffeine • 3. 0.0001% caffeine • 4. 0.0005% caffeine • 5. 0.001% caffeine • 6. 0.005% caffeine
The trial durations were 24, 48 and 72 hours.
The study took the form of a colourimetric MTT study.

[14] = 0.0005% caffeine, both experiments

For Cn1c(=O)c2c(ncn2C)n(C)c1=O [caffeine], which “cell proliferation (DNA content)” value [1] is on record?
Its value is “appears to promote cell proliferation”.

And the “mRNA expression of VEGF compared to the control group” value [2]?
Its value is “appear to increase mRNA expression of VEGF”.

And the “VEGF protein production/secretion compared to the control group” value [3, 14]?
The value was “increases VEGF protein production/secretion”.

And the “VEGF protein production/secretion compared to the control group” value ([3]; 0.005% caffeine, Experiment 2)?
The value was “also showed an effect”.

And the “mRNA expression of VEGF compared to the control group (under experiments regarding GM-CSF)” value [4]?
Its value is “apparently increased the mRNA expression of VEGF”.

What about the “VEGF protein production/secretion compared to the control group (under experiments regarding GM-CSF)” value ([5]; 0j.005% caffeine, Experiment 2) of the same molecule?
The value was “also showed an effect”.

What about the “VEGF protein production/secretion compared to the control group (under experiments regarding GM-CSF)” value [5, 14] of the same molecule?
The value was “increased VEGF protein production/secretion”.

And the “mRNA expression of TGFβ1” value [6]?
Its value is “None of the tested caffeine concentrations changed the mRNA expression of TGFβ1”.

What about the “mRNA expression of TGFβ2” value ([7]; certain caffeine concentrations, 24 h, Experiment 2) of the same molecule?
The value was “apparently increase mRNA expression of TGFβ2”.

And the “synthesis/production/secretion of TGFβ2 (overall conclusion)” value ([7]; despite contradictory results in the two Q-PCR experiments)?
Its value is “most likely does not alter”.

What about the “level of TGFβ1-specific protein” value [8] of the same molecule?
The value was “below the detection limit”.

What about the “expression of HGF-specific mRNA” value [9] of the same molecule?
Its value is “below the detection limit”.

What about the “expression of HGF-specific protein” value [10] of the same molecule?
Its value is “below the detection limit”.

What about the “expression of TNFα-specific mRNA” value [11] of the same molecule?
The value was “below the detection limit”.

What about the “expression of TNFα-specific protein” value [12] of the same molecule?
The value was “below the detection limit”.

And the cytotoxicity ([13]; 0.00005-0.005% caffeine, 24, 48 and 72 hours)?
The cytotoxicity was “none of the concentrations tested showed cytotoxicity”.

What about the “number of viable cells” value ([13]; certain concentrations of caffeine) of the same molecule?
Its value is “increased the number of viable cells”.
